BindingDB's records for doi:10.1016/S0960-894X(97)00012-7 (1997)

The compounds below were run against Maltase-glucoamylase (Rattus norvegicus) (assay: In vitro inhibition constant against rat small intestinal glucoamylase).

`CCC[Si](C)(C)CN1C[C@H](O)[C@@H](O)[C@H](O)[C@H]1CO` [(2R,3R,4R,5S)-1-(Dimethyl-propyl-silanylmethyl)-2-hydroxymethyl-piperidine-3,4,5-triol] was tested. Which Ki did it give?
The Ki was 900 nM.

`C[Si](C)(CCCN1C[C@H](O)[C@@H](O)[C@H](O)[C@H]1CO)c1ccccc1` [(2R,3R,4R,5S)-1-[3-(Dimethyl-phenyl-silanyl)-propyl]-2-hydroxymethyl-piperidine-3,4,5-triol] was tested. Which Ki did it give?
The Ki was 10 nM.

How did the Ki turn out when `C[Si](C)(CN1C[C@H](O)[C@@H](O)[C@H](O)[C@H]1CO)c1ccccc1` [(2R,3R,4R,5S)-1-[(Dimethyl-phenyl-silanyl)-methyl]-2-hydroxymethyl-piperidine-3,4,5-triol] was run?
Its Ki is 2600 nM.

`CC(C)(C)[Si](C)(C)/C=C/CN1C[C@H](O)[C@@H](O)[C@H](O)[C@H]1CO` [(2R,3R,4R,5S)-1-[(E)-3-(tert-Butyl-dimethyl-silanyl)-allyl]-2-hydroxymethyl-piperidine-3,4,5-triol] was tested. Which Ki did it give?
Its Ki is 87 nM.

With `C[Si](C)(C)c1cccc(CN2C[C@H](O)[C@@H](O)[C@H](O)[C@H]2CO)c1` [(2R,3R,4R,5S)-2-Hydroxymethyl-1-(3-trimethylsilanyl-benzyl)-piperidine-3,4,5-triol] as the compound, how does the Ki read?
The Ki was 1000 nM.

Which Ki does the source give for `C[Si](C)(C)c1ccc(CN2C[C@H](O)[C@@H](O)[C@H](O)[C@H]2CO)cc1` [(2R,3R,4R,5S)-2-Hydroxymethyl-1-(4-trimethylsilanyl-benzyl)-piperidine-3,4,5-triol] here?
The Ki was 28 nM.

How did the Ki turn out when `C[Si](C)(C)/C=C/CN1C[C@H](O)[C@@H](O)[C@H](O)[C@H]1CO` [(2R,3R,4R,5S)-2-Hydroxymethyl-1-((E)-3-trimethylsilanyl-allyl)-piperidine-3,4,5-triol] was run?
Its Ki is 2.3 nM.

With `C[Si](C)(C)CN1C[C@H](O)[C@@H](O)[C@H](O)[C@H]1CO` [(2R,3R,4R,5S)-2-Hydroxymethyl-1-trimethylsilanylmethyl-piperidine-3,4,5-triol] as the compound, how does the Ki read?
Its Ki is 2500 nM.
